Experimental data from patent publication US8822407B2, “Preparation of conjugates comprising adenine derivatives and allergenic proteins and their use for specific immunotherapy of allengenic diseases” (Universita' Degli Studi di Firenze, priority 2010, dated 2014).

Tests used:
[1] = system: purified CD14+ cells; test: Cytokine production by purified CD14+ cells (ELISA of supernatants, 36 hrs); format: cell-based, human; conditions: for IL-6 production / IL-10 production / IL-12p40 production / TNF-alfa production: Table A
Method: Circulating mononuclear cells (MNC) are isolated by density gradient (Ficoll-Hypaque) using buffy coats from 14 normal donors (Servizio Immunotrasfusionale e terapie cellulari, Azienda Ospedaliera Universitaria A. Meyer, Firenze). 200×10^6 MNC are separated by the use of a commercial kit (CD14 isolation kit, Miltenyi) by the addition of 400 μl anti-CD14 monoclonal antibody bound to iron beads followed by isolation on magnetic columns (LS column). 50×10^6 monocytes are recovered by positive selection and are extensively washed with calcium and magnesium-free sterile PBS and then seeded in complete medium plus 10% foetal calf serum in 24 flat bottomed plates at the concentration of 1×10^6/ml. […] The plates are incubated for 36 hrs at 37° C. in 5% CO2 humidified atmosphere and the supernatants are collected after centrifugation at 1200 rpm, aliquoted and then stored at −20° C. up to the assay. […]
(§1) For the determination of cytokines and chemokines of the innate immunity, commercial ELISAs have been used: IL-12p40 (Cytoscreen, Biosource Int, Camarillo, Calif.), IFN-alfa (Cytoscreen), TNF-alfa (Cytoscreen), IL-10 (Pharmingen), IL-6 and CXCL10 (R&D System). 100 μl/well of single supernatants are incubated in flat bottomed plates as specified by the productors and the amounts of the single cytokines are expressed as pg/ml on the basis of a reference curve by using recombinant cytokines.

[2] = system: purified BDCA4+ cells; test: Cytokine production by purified BDCA4+ cells (plasmacytoid dendritic cells), ELISA; format: cell-based, human
Method: The preparation of purified BDCA4+ cells has been obtained in a similar way starting from MNC of buffy coats of the same 14 healthy donors. […] By positive selection 5×10^6 plasmacytoid dendritic cells (PDCs) are recovered, extensively washed with calcium and magnesium-free sterile PBS and seeded in complete medium plus 10% foetal calf serum in 24-flat bottomed plates at the concentration 1×10^6/ml. […] The plates are incubated for 36 hrs at 37° C. in 5% CO2 humidified atmosphere and the supernatants are collected after centrifugation at 1200 rpm, aliquoted and then stored at −20° C. up to the assay. […]
as §1

[3] = biological target: T1, human TLR7 (Homo sapiens, UniProt Q9NYK1); test: TLR7 activation, NF-kB luciferase reporter in transfected HEK293 cells; format: cell-based; conditions: human TLR7-encoding plasmid
T1 construct: expressed in transfected cells; host or cells: HEK293 (transient Nucleofection, Amaxa)
T1 sequence (Q9NYK1 27-1049): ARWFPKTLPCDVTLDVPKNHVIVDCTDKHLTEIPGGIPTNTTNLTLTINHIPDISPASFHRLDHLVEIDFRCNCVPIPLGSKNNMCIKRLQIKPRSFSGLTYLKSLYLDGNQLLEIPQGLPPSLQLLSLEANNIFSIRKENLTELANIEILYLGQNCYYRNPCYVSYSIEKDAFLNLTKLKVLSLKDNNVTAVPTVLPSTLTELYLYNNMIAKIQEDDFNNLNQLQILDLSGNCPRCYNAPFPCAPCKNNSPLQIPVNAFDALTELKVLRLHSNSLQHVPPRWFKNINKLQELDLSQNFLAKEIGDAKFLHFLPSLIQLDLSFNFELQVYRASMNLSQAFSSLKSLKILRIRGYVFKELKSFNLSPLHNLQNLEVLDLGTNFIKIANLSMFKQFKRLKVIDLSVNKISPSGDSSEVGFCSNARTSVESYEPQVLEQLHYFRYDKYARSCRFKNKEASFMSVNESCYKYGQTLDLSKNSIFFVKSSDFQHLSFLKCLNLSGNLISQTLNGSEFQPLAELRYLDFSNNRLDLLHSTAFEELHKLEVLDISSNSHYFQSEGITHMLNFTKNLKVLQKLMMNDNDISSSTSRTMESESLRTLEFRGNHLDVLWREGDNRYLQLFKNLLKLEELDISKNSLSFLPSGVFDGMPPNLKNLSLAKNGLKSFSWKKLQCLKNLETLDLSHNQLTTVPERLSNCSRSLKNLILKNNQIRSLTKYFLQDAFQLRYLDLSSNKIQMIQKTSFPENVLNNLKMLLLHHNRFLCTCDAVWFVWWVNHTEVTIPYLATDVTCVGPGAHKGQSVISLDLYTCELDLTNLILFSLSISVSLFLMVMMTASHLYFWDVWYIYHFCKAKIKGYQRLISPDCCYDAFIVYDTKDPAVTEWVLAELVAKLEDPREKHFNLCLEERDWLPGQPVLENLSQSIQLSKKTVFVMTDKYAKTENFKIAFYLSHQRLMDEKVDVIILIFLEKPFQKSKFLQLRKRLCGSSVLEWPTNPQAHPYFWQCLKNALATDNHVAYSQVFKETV
Method: HEK293 cells are detached by trypsin from the plastic surface of the culture bottle, extensively washed with calcium and magnesium-free PBS, counted and adjusted at the concentration 1×10^6 cells/tube in polypropylene V-bottomed tubes. After the final wash, the cells are pelleted and 100 μl transfection buffer (Amaxa) is added together with […], TLR7, TLR8 or TLR9-encoding and ELAM-1 promoter NF-kB luciferase reporter plasmids. The mixture thus obtained is transferred in special cuvettes and transient transfection is obtained in a special apparatus which is able to directly introduce genetic material into the nucleus (Nucleofection®, Amaxa GmbH). The cells are then recovered and cultured at 1×10^5/ml in 48-flat bottomed plates in E-MEM medium plus 5% foetal calf serum for 18 hrs. […] Finally the luciferase activity is measured in the cellular lysates by a commercial kit (Promega).

[4] = Table C, Donor #1, R-848, dose not printed in table (2 μg/ml elsewhere in the source)
[5] = Table C, Donor #2, R-848 (2 μg/ml)
[6] = Table F, Donor #1, dose 2 μg/ml
[7] = Table F, Donor #2, dose 2 μg/ml
[8] = Table C, Donor #1, dose 0.085 μg/ml
[9] = Table C, Donor #1, dose 0.6 μg/ml
[10] = Table C, Donor #1, dose 2.5 μg/ml
[11] = Table C, Donor #1, dose 10 μg/ml
[12] = Table C, Donor #2, dose 0.085 μg/ml
[13] = Table C, Donor #2, dose 0.6 μg/ml
[14] = Table C, Donor #2, dose 2.5 μg/ml
[15] = Table C, Donor #2, dose 10 μg/ml

CCOCc1nc2c(N)nc3ccccc3c2n1CC(C)(C)O [Conj R-848, reference compound]
IL-6 production (mean ± SE) ([1]; Table B, dose 2 μg/ml): 45.8 ± 15.2 ng/mL | IL-10 production (mean ± SE) ([1]; Table B, dose 2 μg/ml): 2.0 ± 0.5 ng/mL | IL-12p40 production (mean ± SE) ([1]; Table B, dose 2 μg/ml): 16.9 ± 6.3 ng/mL | TNF-alfa production (mean ± SE) ([1]; Table B, dose 2 μg/ml): 16.3 ± 4.9 ng/mL | IFN-alfa production [2, 4]: 3154 pg/mL | IL-6 production [2, 4]: 746 pg/mL | IL-10 production [2, 4]: 1500 pg/mL | TNF-alfa production [2, 4]: 10368 pg/mL | IFN-alfa production [2, 5]: 6187 pg/mL | IL-6 production [2, 5]: 308 pg/mL | IL-10 production [2, 5]: 753 pg/mL | TNF-alfa production [2, 5]: 20990 pg/mL | IFN-alfa production (mean ± SE) ([2]; Table D, dose 2 μg/ml): 5.6 ± 2.5 ng/mL | IL-6 production (mean ± SE) ([2]; Table D, dose 2 μg/ml): 7.7 ± 2.6 ng/mL | IL-10 production (mean ± SE) ([2]; Table D, dose 2 μg/ml): 1.0 ± 0.6 ng/mL | TNF-alfa production (mean ± SE) ([2]; Table D, dose 2 μg/ml): 5.4 ± 1.4 ng/mL | IFN-alfa production [2, 6]: 1131 pg/mL | IL-6 production [2, 6]: 44302 pg/mL | IL-10 production [2, 6]: 1864 pg/mL | TNF-alfa production [2, 6]: 4832 pg/mL | IFN-alfa production [2, 7]: 1605 pg/mL | IL-6 production [2, 7]: 37603 pg/mL | IL-10 production [2, 7]: 1305 pg/mL | TNF-alfa production [2, 7]: 6898 pg/mL | cytokine production from BDCA4+ cells (in words) ([2]; text to Tables C and D): high levels of IFN-alfa, IL-10 and CXCL10 | TLR7 activation (NF-κB luciferase) in transfected HEK293 cells [3]: able to induce NF-κB expression

Nc1nc(SCCCC(=O)ON2C(=O)CCC2=O)nc2c1nc(O)n2Cc1ccccc1 [SA-26E, 4-(6-Amino-9-benzyl-8-hydroxy-9H-purin-2-ylsulfanyl)-butyric acid 2,5-dioxo-pyrrolidin-1-yl ester]
cytokine production from purified CD14+ cells (in words) ([1]; 0.085 μg/ml soluble SA-26E (amount present in Conj-5, -6, -7 and -8)): not able to stimulate the production of any cytokine | IL-6 production ([1]; Donor #1, dose 0.085 μg/ml): 0 pg/mL | IL-10 production ([1]; Donor #1, dose 0.085 μg/ml): 0 pg/mL | IL-12p40 production ([1]; Donor #1, dose 0.085 μg/ml): 0 pg/mL | TNF-alfa production ([1]; Donor #1, dose 0.085 μg/ml): 0 pg/mL | IL-6 production ([1]; Donor #1, dose 0.6 μg/ml): 0 pg/mL | IL-10 production ([1]; Donor #1, dose 0.6 μg/ml): 124 pg/mL | IL-12p40 production ([1]; Donor #1, dose 0.6 μg/ml): 569 pg/mL | TNF-alfa production ([1]; Donor #1, dose 0.6 μg/ml): 345 pg/mL | IL-6 production ([1]; Donor #1, dose 2.5 μg/ml): 11 pg/mL | IL-10 production ([1]; Donor #1, dose 2.5 μg/ml): 618 pg/mL | IL-12p40 production ([1]; Donor #1, dose 2.5 μg/ml): 863 pg/mL | IL-6 production ([1]; Donor #1, dose 10 μg/ml): 2930 pg/mL | IL-10 production ([1]; Donor #1, dose 10 μg/ml): 609 pg/mL | IL-12p40 production ([1]; Donor #1, dose 10 μg/ml): 2500 pg/mL | TNF-alfa production ([1]; Donor #1, dose 10 μg/ml): 2123 pg/mL | IL-6 production ([1]; Donor #2, dose 0.085 μg/ml): 0 pg/mL | IL-10 production ([1]; Donor #2, dose 0.085 μg/ml): 0 pg/mL | IL-12p40 production ([1]; Donor #2, dose 0.085 μg/ml): 0 pg/mL | TNF-alfa production ([1]; Donor #2, dose 0.085 μg/ml): 0 pg/mL | IL-6 production ([1]; Donor #2, dose 0.6 μg/ml): 0 pg/mL | IL-10 production ([1]; Donor #2, dose 0.6 μg/ml): 0 pg/mL | IL-12p40 production ([1]; Donor #2, dose 0.6 μg/ml): 785 pg/mL | TNF-alfa production ([1]; Donor #2, dose 0.6 μg/ml): 466 pg/mL | IL-6 production ([1]; Donor #2, dose 2.5 μg/ml): 4 pg/mL | IL-12p40 production ([1]; Donor #2, dose 2.5 μg/ml): 2464 pg/mL | TNF-alfa production ([1]; Donor #2, dose 2.5 μg/ml): 1267 pg/mL | IL-6 production ([1]; Donor #2, dose 10 μg/ml): 163 pg/mL | IL-10 production ([1]; Donor #2, dose 10 μg/ml): 584 pg/mL | IL-12p40 production ([1]; Donor #2, dose 10 μg/ml): 4800 pg/mL | TNF-alfa production ([1]; Donor #2, dose 10 μg/ml): 3730 pg/mL | cytokine production from purified CD14+ cells (in words) ([1]; text to Tables A and B): intermediate effect | cytokine production from BDCA4+ cells (in words) ([2]; 0.085 μg/ml concentration): completely inactive | IFN-alfa production [2, 8]: 0 pg/mL | IL-6 production [2, 8]: 0 pg/mL | TNF-alfa production [2, 8]: 0 pg/mL | IFN-alfa production [2, 9]: 179 pg/mL | IL-6 production [2, 9]: 0 pg/mL | IL-10 production [2, 9]: 0 pg/mL | TNF-alfa production [2, 9]: 183 pg/mL | IFN-alfa production [2, 10]: 179 pg/mL | IL-6 production [2, 10]: 0 pg/mL | IL-10 production [2, 10]: 0 pg/mL | TNF-alfa production [2, 10]: 252 pg/mL | IFN-alfa production [2, 11]: 486 pg/mL | IL-6 production [2, 11]: 675 pg/mL | IL-10 production [2, 11]: 896 pg/mL | TNF-alfa production [2, 11]: 858 pg/mL | IFN-alfa production [2, 12]: 0 pg/mL | IL-6 production [2, 12]: 0 pg/mL | IL-10 production [2, 12]: 0 pg/mL | TNF-alfa production [2, 12]: 0 pg/mL | IFN-alfa production [2, 13]: 669 pg/mL | IL-6 production [2, 13]: 0 pg/mL | IL-10 production [2, 13]: 0 pg/mL | TNF-alfa production [2, 13]: 520 pg/mL | IFN-alfa production [2, 14]: 2014 pg/mL | IL-6 production [2, 14]: 760 pg/mL | TNF-alfa production [2, 14]: 1157 pg/mL | IFN-alfa production [2, 15]: 3589 pg/mL | IL-6 production [2, 15]: 1439 pg/mL | IL-10 production [2, 15]: 750 pg/mL | TNF-alfa production [2, 15]: 3405 pg/mL | cytokine production from BDCA4+ cells (in words) ([2]; text to Tables C and D): intermediate effect | TLR7 activation (NF-κB luciferase) in transfected HEK293 cells [3]: completely inactive
